# Test results: patent publication US20210363545A1, “GENETIC SELECTION MARKERS BASED ON ENZYMATIC ACTIVITIES OF THE PYRIMIDINE SALVAGE PATHWAY” (priority 2018, published 2021)
# Experiments:
# [1] = system: P. chrysogenum; experiment: broth microdilution susceptibility testing according to EUCAST; format: cell-based, Penicillium chrysogenum
# Description: (§1) To identify encoded A. fumigatus FcyB, FcyA, Uprt, Uk and CntA activities in further fungal species, it was searched for A. fumigatus orthologs in biotechnology-relevant species (Aspergillus niger, Aspergillus oryzae, P. chrysogenum, Komagataella phaffii alias Pichia pastoris, S. cerevisiae, Trichoderma reesei) and in virulence-relevant species (Candida albicans, Cryptococcus neoformans, F. oxysporum). Orthologs to A. fumigatus proteins with an overall identity 40% were considered as putative orthologs if activities could be confirmed by susceptibility testing following a broth microdilution based method according to EUCAST (see Table 10).
# [2] = system: A. niger; experiment: as above; format: cell-based, Aspergillus niger
# Description: as §1
# [3] = system: A. fumigatus ΔfcyA; experiment: plate growth assay based susceptibility testing on solid AMM; format: cell-based, Aspergillus fumigatus; details: up to 100 μg/ml, regardless of the pH
# Experimental: (§2) Plate growth assay based susceptibility testing of A. fumigatus and P. chrysogenum was carried out using solid AMM, for F. oxysporum solid PDA was employed. Low pH medium contained 100 mM citrate buffer (pH5), neutral pH medium 100 mM MOPS buffer (pH7). For strains carrying PxylP tunable reporter genes (sGFP, mKate2PER, sGFPMIT, lacZ), 0.5% xylose was supplemented to the medium to induce gene expression.
# (§3) Coding sequences of fcyA and uprt were disrupted in wt (A1160P+) using hygromycin B and zeocin resistance cassettes, respectively. Therefore, deletion constructs comprising approximately 1 kb of 5′ and 3′ NTR linked to the central antibiotic resistance cassette were generated using fusion PCR as previously described (Fraczek, et al., The Journal of antimicrobial chemotherapy 68, 1486-1496 (2013)). Correct integration of constructs was confirmed by Southern analysis (see FIG. 14).
# Among other fungal species, A. fumigatus is susceptible to 5FC (Te Dorsthorst et al., Antimicrob Agents Chemother 48, 3147-3150 (2004); Te Dorsthorst et al., Antimicrobial agents and chemotherapy 49, 3341-3346 (2005)) and is therefore anticipated to harbor genes encoding CD and UPRT in addition to 5FC uptake. […]
# [4] = system: C. neoformans; experiment: broth microdilution susceptibility testing according to EUCAST; format: cell-based, Cryptococcus neoformans
# Description: as §1
# [5] = system: C. albicans; experiment: as above; format: cell-based, Candida albicans
# Description: as §1
# [6] = system: A. fumigatus Δuprt; experiment: plate growth assay based susceptibility testing on solid AMM; format: cell-based, Aspergillus fumigatus
# Experimental: Furthermore, 5-FU supplementation inhibits ΔfcyB (see FIG. 4). Inactivation of uprt allows growth of A. fumigatus on AMM supplemented with 100 μg/ml 5FC or 5FU at pH7 (see FIG. 4). At concentrations 10-500 μg/ml 5FC or 5FU, independent of the pH (200 μg/ml 5FC as well as 5FU were also tested and the Δuprt strains grow).
# as §2, §3
# (§4) Among other fungal species, A. fumigatus is susceptible to 5FC (Te Dorsthorst et al., Antimicrob Agents Chemother 48, 3147-3150 (2004); Te Dorsthorst et al., Antimicrobial agents and chemotherapy 49, 3341-3346 (2005)) and is therefore anticipated to harbor genes encoding CD and UPRT in addition to 5FC uptake. […] To analyze their role in 5FC as well as 5FU activity, fcyA and uprt was inactivated in the A. fumigatus strain A1160P+ (Fraczek, et al., The Journal of antimicrobial chemotherapy 68, 1486-1496 (2013)), termed wt here, using hygromycin and phleomycine resistance based deletion cassettes. Due to the interdependency of 5FC activity and environmental pH (Gsaller et al., Antimicrob Agents Chemother 62 (2018); Te Dorsthorst et al., Antimicrob Agents Chemother 48, 3147-3150 (2004)) the contribution of both enzymes as well as FcyB to 5FC and 5FU activity at both pH5 and pH7 was investigated.
# [7] = system: T. reesei; experiment: broth microdilution susceptibility testing according to EUCAST; format: cell-based, Trichoderma reesei
# Description: as §1
# [8] = system: A. fumigatus; experiment: as above; format: cell-based, Aspergillus fumigatus
# Description: as §1
# [9] = system: P. pastoris; experiment: as above; format: cell-based, Komagataella phaffii alias Pichia pastoris
# Description: as §1
# [10] = system: F. oxysporum; experiment: as above; format: cell-based, Fusarium oxysporum
# Description: as §1
# [11] = system: S. cersvisiae; experiment: as above; format: cell-based, S. cerevisiae
# Description: as §1
# [12] = system: A. oryzae; experiment: as above; format: cell-based, Aspergillus oryzae
# Description: as §1
# [13] = system: A. fumigatus ΔfcyB; experiment: plate growth assay based susceptibility testing on solid AMM; format: cell-based, Aspergillus fumigatus; details: for growth of ΔfcyB: 100 μg/ml
# Experimental: (§5) pH 5 transcriptionally activates fcyB mediated uptake of 5FC. […] Inactivation of fcyB leads to resistance at 10 μg/ml 5FC at pH 5. Inactivation of fcyB leads to resistance on AMM (AMM Composition: 55.5 mM D-glucose, 20.0 mM ammonium tartrate, 7 mM KCl, 2.1 mM MgSO4 x 7H2O, 11.2 mM KH2PO4, 0.09 μM Na2B4O7 x 10H2O, 1 μM CuSO4 x 5H2O, 10 μM FeSO4 x 7H2O, 4.5 μM MnSO4 x 4H2O, 3.1 μM Na2MoO4 x 10H2O, […] ZnSO4 x 7H2O, 0.7% Agar; finally adjusted to pH 6.5 using NaOH before autoclaving) supplemented with 10 μg/ml 5FC and 100 mM citrate buffer pH 5.
# as §2, §4
# [14] = system: A. fumigatus wt (A1160P+); experiment: as above; format: cell-based, Aspergillus fumigatus
# Experimental: as §5, §2, §4
structure (smiles),measurement,setting,value
"Nc1nc(=O)[nH]cc1F [5FC, 5-flucytosine]",MIC,[1]; pH 5,0.39 µg/mL
same,MIC,[1]; pH 7,3.12 µg/mL
same,MIC,[2]; pH 5,0.39 µg/mL
same,MIC,[2]; pH 7,6.25 µg/mL
same,resistance of ΔfcyA,[3],full resistance
same,MIC,[4]; pH 5,0.39 µg/mL
same,MIC,[4]; pH 7,25 µg/mL
same,MIC,[5]; pH 5,0.39 µg/mL
same,MIC,[5]; pH 7,0.39 µg/mL
same,growth of Δuprt strains,[6]; 200 μg/ml,grow
same,growth after inactivation of uprt,"[6]; AMM supplemented with 100 μg/ml, pH7",allows growth
same,resistance of Δuprt,"[6]; up to 100 μg/ml, regardless of the pH",full resistance
same,MIC,[7]; pH 5,>400 µg/mL
same,MIC,[7]; pH 7,>400 µg/mL
same,MIC,[8]; pH 5,0.39 µg/mL
same,MIC,[8]; pH 7,400 µg/mL
same,MIC,[9]; pH 5,0.39 µg/mL
same,MIC,[9]; pH 7,0.39 µg/mL
same,MIC,[10]; pH 5,>400 µg/mL
same,MIC,[10]; pH 7,>400 µg/mL
same,MIC,[11]; pH 5,0.39 µg/mL
same,MIC,[11]; pH 7,0.39 µg/mL
same,MIC,[12]; pH 5,0.39 µg/mL
same,MIC,[12]; pH 7,400 µg/mL
same,resistance after inactivation of fcyB,"[13]; 10 μg/ml, pH 5, AMM",resistance
same,growth of ΔfcyB,[13]; pH5,not able to grow
same,growth of ΔfcyB,[13]; pH7,severe growth inhibition
same,susceptibility of WT isolate,"[14]; 10 μg/ml, AMM with 100 mM citrate buffer pH 5",highly susceptible
same,pH dependence of activity,[14]; A. fumigatus,much more active at pH5
same,level that blocked wt growth,"[14]; wt, pH5, plate growth",≥ 1 µg/mL
same,level required to block wt growth,"[14]; wt, pH7, plate growth",100 µg/mL
